Reference: patent US12699094B2, “Fluorescent biosensor for acetyl coenzyme A” (UNIVERSITY OF UTAH RESEARCH FOUNDATION, priority 2023, dated 2026)

Tests used:
[1] = system: E. coli (Rosetta DE3 cells)
Experimental: Plate Reader Refeeding. All assays were done with the BioTek Synergy™ Plate Reader with injectors. All sensors and control proteins were expressed in Rosetta (DE3) cells. PanZ was used as a non-fluorescent control, cpGFP was used as a fluorescent control, and PANcACe was the experimental. Reads were done with excitation 405 nm and 485 nm and emission at 514 nm. Cultures were grown in LB with kanamycin overnight at 37° C. then used to induce new cultures. Cells were grown at 37° C. to an OD600 of 0.6 then induced with 0.5 mM IPTG and grown overnight at 18° C. Cultures were split into 2, 600 μL aliquots and spun at 4000 rpm for 5 minutes.
Glucose Starvation and Refeeding. The supernatant was discarded and pellets were resuspended in 600 μL either starvation buffer (100 mM NaPO4, 2 mM MgCl2, 15 mM (NH4)2SO4+0 mM glucose) or refed buffer (100 mM NaPO4, 2 mM MgCl2, 15 mM (NH4)2SO4+28 mM glucose). 85 μL was added to 3 wells of a 96 well plate for each sample. […] Plates were read for 10 minutes every 30 seconds with 10 seconds of shaking between reads. […] Plates were read for 60 minutes every 30 seconds with 10 seconds of shaking between reads.
2-Deoxyglucose Starvation and Refeeding. […] Plates were read for 10 minutes every 30 seconds with 10 seconds of shaking between reads. […] Plates were read for 60 minutes every 30 seconds with 10 seconds of shaking between reads.

[2] = biological target: PancAce (PANcACe), PanZ(R69)-GA-cpGFP-GA-(E70)PanZ, SEQ ID NO: 5; E. coli PanZ with cpGFP insertion (Escherichia coli, UniProt P37613, INS69[…]); experiment: Fluorescence titration of PancAce with acetyl-CoA, CoA and propionyl-CoA; type: binding
Experimental: Acetyl-CoA and CoA Titration and Spectrum Scans. Assays were done in 384 well plates with […] final well volume. All sensors and control proteins were diluted to 6 μM in protein storage buffer. Acetyl-CoA and CoA were dissolved in water at a concentration of 60 μM then serial diluted to 30 μM, 15 μM, 6 μM, 3 μM, 0.6 μM, 0.06 μM, and 0.006 μM. Wells were set up in triplicate with 14 μL water, 6 μL assay buffer, and 5 μL sensor. 5 μL of an acetyl-CoA stock or water were added to 1 μM sensor before reading. For Titration curves, plates were read at excitation 485 nm and emission 514 nm. For excitation scans plates were excited from 400 nm to 500 nm at 1 nm increments and emissions were read at […]. For emission scans plates were excited at 485 nm, 427 nm, or 405 nm and emissions were read from 500 nm to 575 nm in 1 nm increments. Triplicates were averaged and plotted for scans and percent difference between no acetyl-CoA and acetyl-CoA wells were calculated for titrations.
Titrations of acetyl-CoA and CoA with PANcACe and cpGFP alone were performed (FIG. 9). […] Since the insertion site of cpGFP is very close to the acetyl-CoA binding site, this effect was not surprising. […] Further, the selectivity of PANcACe for short-chain acyl-CoAs was tested (FIG. 11). […] A propionyl-CoA titration confirmed this apparent affinity difference (FIG. 12). Since saturation was not achieved up to 10 mM propionyl-CoA, it was assumed that the same maximal sensor response would be achieved for propionyl-CoA as for acetyl-CoA.

[3] = biological target: E. coli PanZ (PanZ-CFP fusion protein), SEQ ID NO: 1 (Escherichia coli, UniProt P37613); experiment: Surface plasmon resonance binding to PanZ-CFP; details: SPR
Experimental: Surface Plasmon Resonance. Acetyl-CoA and CoA binding to PanZ-CFP were analyzed via SPR using a MASS-1 instrument (Bruker Daltonics, Billerica, MA). Independent experiments were performed using freshly prepared PanZ-CFP, Acetyl-CoA, and CoA stocks on two separate days (surfaces 1 & 2). HLC200 μM sensor surfaces (Xantec Bioanalytics, Düsseldorf, Germany) were activated with EDC/NHS, and then 250 nM PanZ-CFP ligand was captured on the sensor “Spot B” at 10 μL/minute at 2020 RU (surface 1) and 2360 RU (surface 2). The surface was then blocked with […]. The experimental running buffer was 50 mM Tris pH 7.5, 150 mM NaCl, 0.05% Tween-20 for surface 1 replicates and 200 mM Tris pH 7.5, 150 mM NaCl, 0.05% Tween-20 for surface 2 replicates. Experiments were performed at room temperature with a flowrate of 30 μL/minute. A three-fold dilution series (81-0.33 μM) with 1 minute association and 2 minutes dissociation was run in multiple replicates (at least two for each analyte on each surface). Data were double blanked by subtracting the blank in-line control surface (Spot A) and buffer reference injections. Kinetic binding data were globally fit to the Langmuir model for 1:1 binding for each replicate of concentration series using the Sierra Analyser software (version 3.4.1, Bruker Daltonics, Billerica, MA). […]

[4] = biological target: PanZ(R69)-GA-cpGFP-GA-(E70)PanZ (PancAce), SEQ ID NO: 5 (Escherichia coli, UniProt P37613, INS69[…]); experiment: Linker screen, fluorescence response to 1 mM acetyl-CoA; type: biochemical, E. coli
Experimental: Linker Length Screen. cpGFP (HTSD1.00) was inserted into 6× histidine tagged PanZ (HTSD1.10) after amino acid R69 with all 16 possible combinations of N- and C-terminal linkers with amino acid sequences GAS, GA, G, no linker using NEBuilder® HiFi DNA Assembly Master Mix (NEB) (HTSD8.00-8.15).
Position and Linker Screen. Assays were done in 96 well plates with 100 μL final well volumes. All sensors and control proteins were diluted to 10 μM in protein storage buffer (50 mM Tris pH 7.5, 150 mM NaCl, 10% glycerol). Acetyl-CoA was dissolved in water at a concentration of 10 mM. A 5× assay buffer was used ([…] pH 7.5, 750 mM NaCl). Wells were set up in triplicate with 60 μL water, 20 μL reaction buffer, and 10 μL sensor. Then either 10 μL of water or 10 μL of acetyl-CoA were added to 1 μM sensor before reading. […] Triplicates were averaged and percent difference between no acetyl-CoA and acetyl-CoA wells were calculated.

[5] = biological target: PancAce (PANcACe), PanZ(R69)-GA-cpGFP-GA-(E70)PanZ, SEQ ID NO: 5 (Escherichia coli, UniProt P37613, INS69[…]); experiment: Acyl-CoA screen, fluorescence response to 1 mM acyl-CoA; type: biochemical, E. coli; details: FIG. 11, n=3
Experimental: Acyl-CoA Screen. Assays were done in 384 well plates with 30 μL final volume. All sensors and control proteins were diluted to 6 μM in protein storage buffer. CoA, acetyl-CoA, propionyl-CoA, butyryl-CoA, malonyl-CoA, and succinyl-CoA were dissolved in water at a concentration of 6 mM. Wells were set up in triplicate with 14 μL water, 6 μL assay buffer, and 5 μL sensor. 5 μL of an acyl-CoA or water were added to 1 μM sensor before reading. Plates were read at excitation 485 nm and emission 514 nm. Triplicates were averaged and percent difference between acyl-CoAs and water were calculated.

Structure (SMILES): O=CC[C@@H](O)[C@H](O)[C@H](O)CO [2-DG, 2-deoxyglucose]
- recovery of acetyl-CoA levels (sensor response) upon refeeding ([1]; PancAce-expressing cells deprived of glucose 3 hours with 28 mM 2-DG, refed 28 mM glucose, monitored 1 hour): lower recovery of acetyl-CoA levels upon refeeding

Structure (SMILES): CC(C)(COP(=O)(O)OP(=O)(O)OC[C@H]1O[C@@H](n2cnc3c(N)ncnc32)[C@H](O)[C@@H]1OP(=O)(O)O)[C@@H](O)C(=O)NCCC(=O)NCCS [CoA, coenzyme A]
- sensor response ([2]; FIG. 9, acetyl-CoA or CoA titration): the sensor responds only to acetyl-CoA and not CoA
- CoA concentration required to elicit the same sensor response as 100 μM acetyl-CoA ([2]; interpolation, saturation not achieved for CoA): 10 mM

Structure (SMILES): CC(=O)O [acetate]
- duration of increase in PancAce signal upon feeding of starved cells ([1]; 280 μM acetate, pre-starved PancAce-expressing cells): about 30 minutes

Structure (SMILES): CC(=O)SCCNC(=O)CCNC(=O)[C@H](O)C(C)(C)COP(=O)(O)OP(=O)(O)OC[C@H]1O[C@@H](n2cnc3c(N)ncnc32)[C@H](O)[C@@H]1OP(=O)(O)O [acetyl-CoA, acetyl coenzyme A]
- fold higher affinity for acetyl-CoA versus CoA [3]: 7 fold
- Kd ([3]; 1:1 Langmuir fit, average ± standard error, room temperature, pH 7.5): 1700 ± 200 nM
- lower end of detectable acetyl-CoA concentration range ([2]; FIG. 9): about 10 UM
- upper end of detectable acetyl-CoA concentration range ([2]; FIG. 9): about 2 mM
- fold higher affinity for acetyl-CoA compared to propionyl-CoA ([2]; FIG. 12, λex=485, λem=514 nm, n=3-5): approximately 2.5 fold
- fold lower affinity of PANcACe for acetyl-CoA compared to PanZ ([2]; fluorescence Kd,app vs SPR Kd): about 150 fold
- maximum fluorescence response at saturating acetyl-CoA ([2]; λex=485, λem=514 nm): ~2 fold
- fold-change in fluorescence emission ((F1−F0)/F0) ([4]; 1 mM acetyl-CoA, N-GA/C-GA linkers, λex=485, λem=514 nm): about 0.6 fold
- response of GA/GA linker sensor relative to original AS/AS linker ([4]; acetyl-CoA, FIG. 6): about 2.5 fold

Structure (SMILES): CCC(=O)SCCNC(=O)CCNC(=O)[C@H](O)C(C)(C)COP(=O)(O)OP(=O)(O)OC[C@H]1O[C@@H](n2cnc3c(N)ncnc32)[C@H](O)[C@@H]1OP(=O)(O)O [propionyl-CoA]
- fold lower affinity for propionyl-CoA compared to acetyl-CoA ([2]; from fitted Kd values): 2.4 fold
- Kd (estimated) ([2]; saturation not achieved up to 10 mM, fit assumes same maximal sensor response as for acetyl-CoA): 626000 ± 75000 nM
- sensor fluorescence response [5]: some response
